The values below come from ChEMBL document CHEMBL1201862, “PubChem BioAssay data set” (2004).

Test in all cases: growth of human tumour cells (NCI), 48 h
The subject of assay [1] is NCI-H460.
Assay [2] relates to SF-295.
In assay [3] the test system is MDA-MB-231.
In assay [4] the test system is COLO 205.
The test system of assay [5] is KM12.
For assay [6], the system named is 786-0.
Assay [7] relates to M14.
Assay [8] has as its system HT-29.
Assay [9] has as its system HL-60.
The test system of assay [10] is Malme-3M.
The subject of assay [11] is TK-10.
Assay [12] relates to K562.
Assay [13] relates to BT-549.
Assay [14] has as its system HCC 2998.
Assay [15] deals with IGROV-1.
Assay [16] has as its system SNB-19.
Assay [17] relates to RXF 393.
The test system of assay [18] is SNB-75.
Assay [19] deals with MCF7.
The test system of assay [20] is SK-MEL-2.

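Values below derive from 48-hour exposures of cells grown in 96-well plates, with endpoints linearly interpolated between the two concentrations bracketing the appropriate inhibition level. At the GI50, growth is halved.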 Active and inactive are the calls of the source. No stated cut-off is given here; in the data, active = GI50 up to about 1.1 µM and inactive = higher.

`CC(=O)CC1CCC(=O)CCC(=O)OC(CC(C)=O)CCC(=O)CCC(=O)O1` (configuration not stated): the GI50 in [1], in assay [2], in [3], in assay [4], in assay [5] and in assay [6] was > 100 µM (inactive) throughout. Also, the GI50 in assay [7], in assay [8], in assay [9], in assay [10], in [11] and in assay [12] was > 100 µM (inactive) in each case. Further, the GI50 in assay [13], in assay [14], in [15], in [16], in [17] and in assay [18] was > 100 µM (inactive) each time. Moreover, in assay [19], the GI50 is > 100 µM (inactive).
Take `Cc1cc(OCc2nnc3sc(NC(=O)c4ccccc4)nn23)ccc1Cl`: the GI50 was 39.1 µM (inactive) in assay [1]; 28.8 µM (inactive) in assay [20]; 36.6 µM (inactive) in assay [2]; 42.4 µM (inactive) in assay [3]; 53.5 µM (inactive) in assay [4]; 21.5 µM (inactive) in assay [5]. The GI50 in assay [6] is 33.1 µM (inactive); in assay [7], 27.4 µM (inactive); in assay [8] it was 38.4 µM (inactive); in assay [9], 34.6 µM (inactive); in assay [10], 21.4 µM (inactive); in [11], 62.4 µM (inactive). Moreover, the GI50 is 94.2 µM (inactive) in assay [12]; 41.7 µM (inactive) in [13]; 26.7 µM (inactive) in [14]; 25.4 µM (inactive) in [15]; 33.9 µM (inactive) in [16]; 30.6 µM (inactive) in assay [17]. Besides, the GI50 in [19] is 30.3 µM (inactive).
For the molecule `CC1C(OS(=O)(=O)c2ccc3nc(S)sc3c2)CC2C3(C)CCC2(C(C)C(=O)O)C(O)C13` (configuration not stated), the GI50 in assay [1] was 46.9 µM (inactive); in [20] it was 29.2 µM (inactive); in [2], 28 µM (inactive); in assay [3], 21.2 µM (inactive); in assay [4] it was 20.7 µM (inactive); in [5] it was 19.9 µM (inactive). Also, the GI50 is 20.2 µM (inactive) in assay [6]; 32.4 µM (inactive) in assay [7]; 17.5 µM (inactive) in assay [8]; 23.7 µM (inactive) in assay [9]; 27.2 µM (inactive) in assay [10]; 44.5 µM (inactive) in assay [11]. Moreover, the GI50 in [12] is 26.2 µM (inactive); in assay [13], 24.9 µM (inactive); in assay [14], 35.6 µM (inactive); in [15], 11.4 µM (inactive); in assay [16], 54.1 µM (inactive); in assay [17], 21.7 µM (inactive). In addition, the GI50 in assay [19] was 27.6 µM (inactive).
`N#Cc1c(N)nc(Sc2ccccc2N)c(C#N)c1-c1ccc(Cl)cc1`: the GI50 in assay [1] is 9.46 µM (inactive); in assay [20] it was 5.14 µM (inactive); in [2], 6.65 µM (inactive); in assay [3], 9.77 µM (inactive); in assay [4], 28.5 µM (inactive); in [5], 12.6 µM (inactive). Besides, the GI50 was 6.98 µM (inactive) in assay [6]; 10.5 µM (inactive) in assay [7]; 7.71 µM (inactive) in [8]; > 27.5 µM (inactive) in assay [9]; 6.61 µM (inactive) in assay [10]; 13.7 µM (inactive) in assay [11]. Also, the GI50 in assay [12] was 3.07 µM (inactive); in assay [13], 4.21 µM (inactive); in assay [14] it was 9.73 µM (inactive); in assay [15], 5.52 µM (inactive); in assay [16], 14.3 µM (inactive); in assay [17] it was 16 µM (inactive). Moreover, in [19], the GI50 was 7.05 µM (inactive).
As for `CC(=O)NNC1=NN(C(C)=O)C2(S1)C(=O)Nc1ccc(C)cc12` (configuration not stated), the GI50 in [1] is 67 µM (inactive); in assay [2], 97.9 µM (inactive); in assay [3], 80.2 µM (inactive); in assay [4], > 100 µM (inactive); in [5] it was 57.7 µM (inactive); in assay [6] it was 84.1 µM (inactive). The GI50 in assay [7] was > 100 µM (inactive); in assay [8] it was > 100 µM (inactive); in assay [9], 38.3 µM (inactive); in assay [10], 49.7 µM (inactive); in [11], 38.5 µM (inactive); in [12], 48.3 µM (inactive). In addition, the GI50 is 47.8 µM (inactive) in [13]; 47.1 µM (inactive) in [14]; 66.5 µM (inactive) in [15]; 52.5 µM (inactive) in [16]; 44.9 µM (inactive) in assay [17]; 45.7 µM (inactive) in assay [18]. The GI50 in [19] is 58.7 µM (inactive).
For `CC(C)(C)C1CCC2c3c([nH]c4ccccc34)C3C(=O)N(c4cc(Cl)ccc4Cl)C(=O)C3C2C1` (configuration not stated), the GI50 in assay [1] is > 100 µM (inactive); in [20], > 100 µM (inactive); in assay [2], > 100 µM (inactive); in [3], 25.9 µM (inactive); in assay [4], > 100 µM (inactive); in assay [6] it was > 100 µM (inactive). Besides, the GI50 was > 100 µM (inactive) in [7]; > 100 µM (inactive) in [8]; > 10 µM (inactive) in assay [9]; > 100 µM (inactive) in [10]; > 100 µM (inactive) in [11]; > 100 µM (inactive) in assay [12]. Further, the GI50 in [13], in assay [14], in assay [15], in assay [16], in [17] and in assay [19] was > 100 µM (inactive) each time.
As for `CC(=O)O[C@H]1C(=O)[C@@]2(C)[C@H]([C@H](OC(=O)c3cccc(C(F)(F)F)c3)[C@]3(O)C[C@H](OC(=O)[C@H](O)[C@@H](NC(=O)c4ccccc4)c4ccccc4)C(C)=C1C3(C)C)[C@]1(OC(C)=O)CO[C@@H]1C[C@@H]2O`, the GI50 in [1] is 0.00469 µM (active); in assay [2], 0.0387 µM (active); in assay [3] it was 0.0361 µM (active); in assay [4], < 0.0025 µM (active); in assay [5], < 0.0025 µM (active); in assay [6], 0.00439 µM (active). The GI50 was 0.00306 µM (active) in [7]; < 0.0025 µM (active) in assay [8]; < 0.0025 µM (active) in assay [9]; 0.00318 µM (active) in [10]; 0.175 µM (active) in [11]; < 0.0025 µM (active) in assay [12]. Moreover, the GI50 in [13] was 0.035 µM (active); in [14], 0.0111 µM (active); in [15], 0.00703 µM (active); in assay [16] it was 0.0889 µM (active); in assay [17], 0.0222 µM (active); in assay [18], 0.00434 µM (active). In addition, the GI50 in assay [19] was < 0.0025 µM (active).
